Results as given in US20240115581A1, “Combination therapy for the treatment or prevention of neurological disorders” (Norwegian University of Science and Technology (NTNU), priority 2022, published 2024).

What was measured:
3xTg AD mice [1] = assay: LAMP1 immunolabelling in dSub; assay type: in vivo; settings: Lonafarnib infused (n=4) vs vehicle (n=8)
From the text: We immunolabelled for lysosomal associated membrane protein 1 (LAMP1) in 3xTg AD mice.

3xTg AD mice [2] = assay: Quantification of intraneuronal Aβ (Aβ+ neurons) in dSub after drug infusions; assay type: in vivo; settings: Lonafarnib 80 mg/kg intraventricular, 10 days; young 3xTg AD mice
Description: (§1) In these experiments, a final concentration of 50 mg/kg of Fasudil (10 mM; Selleck Chemicals, Houston, TX, United States) was infused for 14 days in mice and stored at −80° C., whilst a final concentration of 80 mg/kg of Lonafarnib (5 mM; Cayman Chemical, Ann Arbor, MI, United States) was infused for 10 days and stored −20° C. between infusions. […] The same dosages were used during combinatorial infusions of Fasudil and Lonafarnib (administered for a duration of 7 days) in mice (n=4) as the drugs target independent intracellular pathways. All dosages in ml were calculated using; dosage (mg)/concentration (mg/ml)=dose×ml) and were infused at a volume of 60 μl at a rate of 1 μl/min using saline as a control vehicle. […]
Effect size (Cohen's D) was calculated based on initial experiments between animals infused with Fasudil and animals infused with a vehicle, and the resulting effects on intraneuronal Aβ in dSub. Based on each group consisting of n=2 animals, an effect size of 0.75 was calculated (0.8 is considered a large effect size). […] Behavioral performance in the morphed environments of the context-dependent spatial memory task was calculated as follows: dig in square-consistent location=1, dig in circle-consistent location=0, dig in any other location=0.5. […]

[3] = tested on: 3xTg AD mice injected with AAV-tau; assay: Quantification of tau+ neurons in LEC layer II after AAV-tau injection and intraventricular infusion; assay type: in vivo; settings: Lonafarnib 80 mg/kg intraventricular, 10 days; 6 months-old 3xTg AD mice; n.s.
Description: Mice were treated identically to microdialysis guide implantation surgeries, up until deriving stereotaxic coordinates. To target LEC layer II, a craniotomy was made at 0.5 mm anterior to lambda and ˜4 mm lateral (dependent on animal weight) to the midline. A Hamilton microsyringe (Neuros 32-gauge syringe, 5 μl, Hamilton company, Nevada, United States) was lowered vertically into the brain to a depth ˜3.6 mm (dependent on animal weight) from the surface, and 300-1,500 nl of viruses was injected using a microinjector (Nanoliter 2010, World Precision Instruments Inc., United States). We injected the adeno-associated virus (AAV)8 GFP-2a-P301 Ltau (with the chicken beta actin [CBA] promoter; hereafter referred to as AAV-tau). In AAV-tau the short 2A peptide cleaves GFP and human tau during translation at the ribosome. […]
(§2) In these experiments, a final concentration of 50 mg/kg of Fasudil (10 mM; Selleck Chemicals, Houston, TX, United States) was infused for 14 days in mice and stored at −80° C., whilst a final concentration of 80 mg/kg of Lonafarnib (5 mM; Cayman Chemical, Ann Arbor, MI, United States) was infused for 10 days and stored −20° C. between infusions. […] All dosages in ml were calculated using; dosage (mg)/concentration (mg/ml)=dose×ml) and were infused at a volume of 60 μl at a rate of 1 μl/min using saline as a control vehicle. […]

[4] = cited from earlier work
3xTg AD mice [5] = assay: Multiplex ELISA of Aβ40, Aβ42, p-tau and t-tau in CSF sampled by push-pull microdialysis; assay type: in vivo; settings: Lonafarnib, day 10 of infusion, average across younger (injected with AAV-tau) and older mice, vs vehicle
Description: Animals were implanted with microdialysis guide cannulas 2 months following injections. Push-pull microdialysis apparatus and sampling Push-pull microdialysis was conducted as previously described (Bjorkli et al., 2021 supra). A refrigerated fraction collector (CMA 470) was set to 6° C. for the storage of collected CSF in 300 μl low-retention polypropylene plastic vials (Harvard Apparatus, Cambridge, MA, United States). Fluorinated ethylene propylene (FEP) peristaltic tubing (CMA Microdialysis AB, Kista, Sweden) was placed inside each plastic vial for collection and connected to the cassette of the peristaltic roller pump (Reglo ICC Digital). This peristaltic FEP tubing was connected to the outlet side of microdialysis probes (β-irrigated 2 mDa microdialysis probe; CMA 7; CMA Microdialysis AB, Kista, Sweden) with a polyethersulfone 2 mm membrane with tubing adapters bathed in 75% ethanol. FEP tubing (CMA Microdialysis AB, Kista, Sweden) was connected to each microsyringe. The FEP tubing was then connected to the inlet part of the microdialysis probes. Transparent cages were prepared with 1.5 cm of bedding, filled water bottles, and treats. Saline or drugs were loaded inside a gastight microsyringe (CMA Microdialysis AB, Kista, Sweden), which was placed into a syringe pump (CMA 4004). The “dead volume” of the FEP outlet tubing ([…]) was calculated. 100 cm of FEP outlet tubing was used, and therefore the first […] sampled from each animal were discarded. Prior to inserting the microdialysis probes into the guide cannula, the probe was conditioned in 75% ethanol for better recovery of analytes. At the conclusion of microdialyte sampling, the vials of 60 μl CSF were centrifuged and kept at −80° C. until the samples were analyzed with multiplex ELISA.
as §2
The MILLIPLEX® MAP human Aβ and tau magnetic bead panel 4-plex ELISA kit (Millipore, Burlington, MA, United States) and the Bio-Plex 200 System instrument (Biorad, Hercules, CA, United States) were used to assess simultaneously the concentrations of Aβ40, Aβ42, total tau (t-tau), and phosphorylated tau at Thr181 (p-tau) in CSF samples. The samples were undiluted and analyzed in duplicates.

3xTg AD mice [6] = assay: Quantification of amyloid plaques (number, size) in dSub after intraventricular infusions; assay type: in vivo; settings: Lonafarnib 80 mg/kg intraventricular, 10 days, 14 months-old 3xTg AD mice
Description: Mice were administered a lethal dose of sodium pentobarbital (100 mg/ml; Apotekforeningen, Oslo, Norway) and transcardially perfused with Ringer's solution followed by paraformaldehyde (PFA, 4%; Sigma-Aldrich) in 125 mM phosphate buffer (PB). Brains were extracted and fixed for a minimum of 24 h in PFA at 4° C. and transferred to a 2% DMSO solution prepared in PB for 24 h at 4° C. Brains were sectioned coronally at 40 μm on a freezing-sliding microtome (Microm HM430, ThermoFisher Scientific, Waltham, MA, United States).
An incision was made in the non-implanted hemisphere for visualization of the control hemisphere. Immunohistochemical processing was conducted on the tissue. […]

mice = assay: Observation of side-effects during intraventricular drug infusions; assay type: in vivo; settings: intraventricular infusion: 50 mg/kg Fasudil for 14 days; 80 mg/kg Lonafarnib for 10 days
Description: Fasudil and Lonafarnib have previously been delivered using DMSO, which can damage the BBB and mitochondria as well as cause apoptosis. […] Previous research has shown that ˜98% of all small molecules are not transported across the BBB, whilst other research has shown poor drug transport from CSF to the brain. Taking drug transport across the BBB, and from CSF into the brain parenchyma into consideration, dosages of both 25, 50 and 80 mg/kg were administered in initial pilot experiments.
as §1

**Q.** Which results are given for NC(=O)N1CCC(CC(=O)N2CCC([C@H]3c4ncc(Br)cc4CCc4cc(Cl)cc(Br)c43)CC2)CC1 [Lonafarnib, 4-(2-{4-[(11R)-3,10-dibromo-8-chloro-6,11-dihydro-5H-benzo[5,6]cyclohepta[1,2-b]pyridin-11-yl]piperidin-1-yl}-2-oxoethyl)piperidine-1-carboxamide]?
**A.** LAMP1+ neurons in dSub compared to vehicle infused mice (3xTg AD mice [1]): more prominent; number of Aβ+ neurons in dSub (3xTg AD mice [2]): did not affect; number of tau+ neurons in LEC following injection of AAV-tau [3]: moderately reduced; solubility in aqueous buffers [4]: sparingly soluble; CSF AB42 levels (3xTg AD mice [5]; n.s.): moderately reduced; CSF p-tau levels (3xTg AD mice [5]; n.s.): moderately reduced; CSF Aβ40 levels (3xTg AD mice [5]; p<0.01): effectively reduced; CSF t-tau levels (3xTg AD mice [5]; p<0.01): effectively reduced; size of amyloid plaques in dSub compared to vehicle (3xTg AD mice [6]; n.s.): moderately increased; number of dense-core amyloid plaques (overlapping with MC1 immunolabelling) in dSub compared to vehicle infused mice (3xTg AD mice [6]; p=0.0017): effectively reduced; observable side-effects (mice): no observable side-effects
